Experimental data reported in patent US12569507B2, “CAR T-cells for the treatment of bone metastatic cancer” (H. Lee Moffitt Cancer Center and Research Institute, Inc., priority 2018, dated 2026).

Columns and labels:
[1] = tested on: PSCA-expressing C42B prostate cancer cells; test: Interferon-γ ELISA of γδ CAR-T coculture supernatants; format: cell-based
Excerpt: Four variants of the anti-PSCA CAR were generated containing either CD27 (CD27z), CD28 (CD28z), or 4-1BB (BBz) costimulation. The fourth variant contains a CD27 costimulatory domain where the TRAF-binding site has been replaced with an inert flexible linker (G4S). γδ CAR-T cells expressing either CAR variant (or GFP as controls) were generated, and cocultured with PSCA-expressing C42B prostate cancer cells, in presence or absence of zoledronate, at the indicated doses. The presence of interferon-γ in the supernatants (measured by ELISA) was used as a marker of T cell activation. CAR-expressing T cells (but not untransduced or GFP-transduced cells) reacted to target cells by producing interferon-γ (solid bars).

C4-2B-PSCA cells [2] = test: IFNγ ELISA of co-culture supernatants with increasing Zol; format: cell-based
Description: IFNγ ELISA of co-culture supernatants of C4-2B-PSCA cells exposed to media (negative control) or the indicated T cells, in presence of increasing concentrations of Zol (0, 0.4 and 0.8 μM).
(§1) γδ CAR-T cells recognize tumor cells via CAR and via TCR. The CAR- and TCR-mediated mechanisms of tumor cell recognition were tested using the CRPC C4-2BPSCA cell line. Cancer cells were treated with either untransduced (UT) control or CAR-expressing γδ T-cells, in the presence or absence of ZOL (0.4 μM). In presence of ZOL, control γδ T cells induced a cytotoxic effect at approx. 18 h, reflecting recognition of C4-2B-PSCA cells via TCR. […] The ability to induce a potent cytolytic effect with lesser cytokine production that can be modulated by ZOL is important since it may allow γδ (CAR-)T-cells to mediate more precise tumor killing, reducing the risk for complications related to massive cytokine release.

γδ (CAR)-T cells = test: IL-2 secretion by γδ (CAR)-T cells; format: cell-based
T47D breast cancer cells = test: IPP production in response to zoledronate, LC-MS/MS of cell extracts; format: cell-based; settings: 1 h, high-dose zoledronate
Description: (§2) Following treatment of tumor cells with ZOL, IPP was measured in cell extracts by tandem LC-MS/MS, using AppCp as an internal standard. […] ZOL treatment was administered for 1 h or 18 h, at 2 different doses: 10 μM or 25 μM.
(§3) In order to verify that zoledronate effectively induces IPP accumulation in a model system, C4-2B-PSCA-Luc human CRPC prostate cancer cells were treated with 10 μM or 25 μM of zoledronate, for 1 h or 18 h. Intracellular IPP levels were measured using a semi-quantitative mass spectrometry assay. T47D breast cancer cells were used as positive control, and Panc02.03 pancreatic cancer cells were used as negative controls.

[3] = tested on: Panc02.03 pancreatic cancer cells; test: as above; format: cell-based; settings: Panc02.03 cells, even after prolonged treatment with high doses
Description: as §2, §3

CRPC C4-2BPSCA cell line = test: Cytotoxicity of γδ (CAR)-T cells with or without ZOL; format: cell-based; settings: ZOL 0.4 μM added to γδ CAR-T
Description: FIGS. 11A and 11B show zoledronate enhances γδ (CAR)-T cells cytotoxic effect.
as §1

[4] = tested on: C4-2B luciferase expressing cells; test: Intratibial C4-2B bone metastatic CRPC model, γδ T-cells with zoledronate or vehicle; format: in vivo, NSG mice
Excerpt: FIGS. 7A to 7D show C4-2B cells inoculated into NSG mice and treated with either zoledronate (ZOL) or vehicle control. After establishment and randomization mice (n=15/group) were inoculated with 3.5×10^6 […]. Subsets of mice were removed from the study at 1, 3 and 5 days late. […] Number illustrate the percentage of γδ T-cells in the total marrow analysis over time. […] FIG. 7C is a graph showing RLUs quantitated over time and the growth rates calculated for each group. Asterisk indicates statistical significance. Mice at the final time point were assessed for γδ T-cell localization (CD3), apoptosis (cleaved caspase-3; CC3) and proliferation (phospho histone H3; pHH3). […] Arrows indicate positivity. DAPI was used as a nuclear counterstain.
Next, the anti-tumor activity of γδ T-cells on established bone metastatic CRPC lesions in vivo was assessed. NSG (NOD.Cg-Prkdcscid112rgtm1Wjl/SzJ) immunocompromised mice were intratibially inoculated with C4-2B luciferase expressing cells (1×10^5) and once established were randomized in zoledronate (0.1 mg/Kg) or vehicle (saline) groups (n=25 per group) based on relative luminescence unit (RLU) measurement. One week later, mice received tail vein injections of human γδ T-cells (3.5×10^6/mouse).
Groups of mice (n=5) were removed from the study 1, 3, 5 days subsequent to injection with tibias being flushed and assessed for human CD3 Vd2 content by flow cytometry. […] Bioluminescence was used as a correlate of tumor growth.

[5] = tested on: Parental C4-2B cells (PSCA null); test: RTCA cytotoxicity with or without zoledronate; format: cell-based, human; settings: γδ T-cells in combination with zoledronate
Description: (§4) Summary of RTCA analysis of C4-2B-PSCA, or control PSCA null C4-2B, cells co-cultured with γδ CAR-T cells, or untransduced controls (UT). FIGS. […] show tumor cells without ZOL pretreatment. FIGS. 6C and 6D show tumor cells with 2 h ZOL pretreatment. FIGS. 6A and 6C show tumor cell viability 2 h post co-culture. FIGS. 6B and 6D show 30 h post co-culture.
(§5) The CAR- and TCR-mediated mechanism of tumor cell recognition were tested using the CRPC C4-2B cell line.

C4-2B-PSCA cells [6] = test: RTCA cytotoxicity with or without zoledronate; format: cell-based, human; settings: γδ T-cells in combination with zoledronate
Description: as §4, §5

[7] = tibias at study endpoint, vs control

## O=P(O)(O)C(O)(Cn1ccnc1)P(=O)(O)O [zoledronate]
[1]; GFP-transduced and untransduced γδ T cells
  effect of zoledronate on target recognition by control γδ T cells: induced target recognition by GFP-transduced and untransduced γδ T cells
[1]; γδ CAR-T cells, coculture
  effect of zoledronate on interferon production by CAR-T cells: enhanced interferon production by CAR-T cells
C4-2B-PSCA cells [2]; coculture of γδ (CAR-)T-cells with C4-2BPSCA cells
  effect of ZOL on IFNγ secretion: enhanced IFNγ secretion
C4-2B-PSCA cells [2]; αβ T cells used
  effect of ZOL on IFNγ secretion: not observed
γδ (CAR)-T cells
  IL-2 secretion by γδ (CAR)-T cells: increases IL-2 secretion
T47D breast cancer cells
  Intracellular IPP levels: detectable over background
[3]
  Intracellular IPP levels: did not produce IPP
CRPC C4-2BPSCA cell line
  effect of ZOL on cytolytic activity of γδ CAR-T: greatly enhanced
  time to complete elimination of tumor cells: ≤ 45 h
[4]; [7]
  apoptotic (cleaved caspase-3) cancer cells: increased
  proliferative (phospho-Histone H3) cancer cells: decreased
[4]; zoledronate group vs controls, with γδ T-cells
  C4-2B growth rate (bioluminescence): significantly slower
[5]
  viability of tumor cells, early time point: notable reduction in the viability
C4-2B-PSCA cells [6]
  viability of tumor cells, early time point: less evident
